Results reported in publication PMC12449476, “Transient ligand contacts of the intrinsically disordered N-terminus of neuropeptide Y2 receptor regulate arrestin-3 recruitment” (Nature Communications, 2025).

Assays:
[1] = test system: bicelle-reconstituted full-length cysteine-deficient Y2R; experiment: XL-MS competition experiment; type: binding, human; conditions: 50 × molar excess competitor
Description: (§1) Samples were denatured in 10% SDS, 100 mM Tris-HCl (pH 7.5) and subjected to S-Trap enrichment (Protifi, Fairport, NY, USA). Afterwards, proteins were reduced, alkylated, and enzymatically digested with AspN and trypsin according to an existing protocol. Samples were stored at − 20 °C before LC-MS analysis.

[2] = target: T1, WT Nluc-Y2R-eYFP (Homo sapiens, UniProt P49146); conditions: small molecule antagonist vs labeled NPY; cited from earlier work
T1 construct: expressed in transfected cells; host or cells: membrane preparations of transiently transfected HEK293
T1 sequence (P49146 1-381): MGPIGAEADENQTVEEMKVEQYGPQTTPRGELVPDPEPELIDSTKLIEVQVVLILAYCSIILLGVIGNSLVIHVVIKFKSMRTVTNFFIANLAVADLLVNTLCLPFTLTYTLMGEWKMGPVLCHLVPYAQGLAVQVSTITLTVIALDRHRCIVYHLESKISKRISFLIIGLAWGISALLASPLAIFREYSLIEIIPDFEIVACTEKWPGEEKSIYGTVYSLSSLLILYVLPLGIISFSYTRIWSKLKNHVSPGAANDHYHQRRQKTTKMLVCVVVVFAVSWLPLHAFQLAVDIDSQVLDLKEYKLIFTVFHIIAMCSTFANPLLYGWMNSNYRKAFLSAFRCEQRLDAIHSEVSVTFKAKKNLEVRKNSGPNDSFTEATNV
From the text: In the following, we are addressing the Reviewer’s comments point‐by‐point. We quote statements from the Reviewer in bold face. We refer to changes made in the manuscript in yellow italics. Reviewer #1 (Remarks to the Author): In this work ...

[3] = test system: photo-NPY; experiment: XL-MS, intramolecular NPY cross-links; type: binding; conditions: detected in N-term peptide experiment only
Description: as §1
Peptide mixtures were reconstituted in an aqueous solution of 3% (v/v) ACN and 0.05% (v/v) TFA prior to LC-TIMS-MS/MS analysis on an UltiMate 3000 RSLC nano-HPLC system (Thermo Fisher Scientific, Waltham, MA, USA) coupled to a timsTOF Pro mass spectrometer (Bruker Daltonics, Bremen, Germany). Peptides were trapped and desalted on a C18 precolumn (Acclaim PepMap 100, 300 μm × 5 mm, 5 μm, 100 Å, Thermo Fisher Scientific, Waltham, MA, USA) with aqueous 0.1 % (v/v) TFA at a flow rate of 30 μL/min (precolumn temperature 50 °C). […]
Identification of cross-links was performed by a MeroX (v. 2.0.1.7, ref. [77]) search against a fasta file containing the amino acid sequences of triply diazirine-substituted [L17pL, L24pL, L30pL] […] In addition, DDA-PASEF data were analyzed with Skyline[78] as described recently. […]

[4] = test system: bicelle-reconstituted full-length cysteine-deficient Y2R; experiment: XL-MS with full-length Y2R; type: binding, human; conditions: LC-TIMS-MS/MS
Description: as §1
Peptide mixtures were reconstituted in an aqueous solution of 3% (v/v) ACN and 0.05% (v/v) TFA prior to LC-TIMS-MS/MS analysis on an UltiMate 3000 RSLC nano-HPLC system (Thermo Fisher Scientific, Waltham, MA, USA) coupled to a timsTOF Pro mass spectrometer (Bruker Daltonics, Bremen, Germany). Peptides were trapped and desalted on a C18 precolumn (Acclaim PepMap 100, 300 μm × 5 mm, 5 μm, 100 Å, Thermo Fisher Scientific, Waltham, MA, USA) with aqueous 0.1 % (v/v) TFA at a flow rate of 30 μL/min (precolumn temperature 50 °C). Using a flow of 300 nL/min, peptide mixtures were then eluted and separated on a self-packed Picofrit C18 column, 75 µm ID x 40 cm, Tip ID 15 µm (New Objective, Littleton, MA, USA), packed with Reprosil-Pur 120 C18-AQ, 3 µm, 120 Å material (Dr. Maisch GmbH, Ammerbuch, Germany) or a µPAC 50 C18 column (PharmaFluidics, Thermo Fisher Scientific, Germany). Linear gradients were from 3% to 50% B over 90 min, 50% to 85% B (over 5 min) and 85% B (5 min); solvent A: water containing 0.1% (v/v) formic acid and solvent B: acetonitrile containing 0.1% (v/v) formic acid, the separation column was kept at 40 °C. To align results obtained with different chromatographic conditions, unmodified peptides were used as indexed retention time (iRT) standards.
Identification of cross-links was performed by a MeroX (v. 2.0.1.7, ref. [77]) search against a fasta file containing the amino acid sequences of triply diazirine-substituted [L17pL, L24pL, L30pL] […] The following settings were employed: semi-specific proteolytic cleavage: C-terminal at Lys and ArgR and N-terminal at Asp and Glu with up to 3 missed cleavages for each site and a maximum of 5 missed cleavages per peptide; peptide length of 4–25 amino acids; fixed modifications: carbamidomethylation of Cys; variable modifications: oxidation of Met; precursor and fragment mass tolerances were set to 10 ppm. […] Two searches were performed per data set, considering photo-leucine reactivity towards (i) only the acidic amino acids Asp and Glu and the protein C-terminus and (ii) reactivity towards all 20 amino acids. Peptide spectral matches were initially filtered to a 10% intensity score, a minimum score cut-off of 30 and 1% FDR (false discovery rate). Lenient FDR filters were compensated by manual validation of all proposed cross-links. In addition, DDA-PASEF data were analyzed with Skyline[78] as described recently. […]

In the case of CCN(CC)C(=O)C(c1ccccc1)N1CCN(c2ccc(NC(=O)c3ccccc3-c3cccnc3)cc2F)CC1 (stereo not shown) [JNJ-31020028, N-(4-{4-[2-(diethylamino)-2-oxo-1-phenylethyl]piperazin-1-yl}-3-fluorophenyl)-2-pyridin-3-ylbenzamide], the “Effect of excess unlabeled ligand on cross-links” value [1] is listed as “essentially abolished all cross-links” and the “Blocking of high- and low-affinity binding” value [2] is listed as “can be blocked”.
With “photo-NPY: triply diazirine-substituted photo-leucine [L17pL, L24pL, L30pL] NPY variant” the Intra-NPY cross-linked positions [3] was “pL30 & D6”, the “Number of contact points to Y2R NT” value [4] was 16 and the “Number of contacts to ECL2” value [4] was “three”. For the same compound, the “Number of cross-links to extracellular regions of Y2R” value [4] was 34 and the “Number of peptide-receptor cross-links” value ([4]; total) was 40.
